Measured values as given in BindingDB's records for doi:10.1021/np030086k (University of Mississippi, 2003).

Assay: Inhibition of LFA1:CD11a/CD18/ICAM1-mediated human HL60 cell adhesion to human HeLa cells expressing ICAM1 by fluorescence analysis

Row | Compound | IC50
1 | CC[C@H]1CN2CCc3cc(OC)c(OC)cc3[C@@H]2C[C@@H]1C[C@H]1NCCc2cc(OC)c(OC)cc21 [6',7',10,11-tetramethoxyemetan] | > 104 µM
2 | CC[C@H]1CN2CCc3cc(OC)c(OC)cc3[C@@H]2C[C@@H]1C[C@H]1NCCc2cc(O)c(OC)cc21 [CHEBI:3533] | > 21.4 µM
3 | C=C1[C@@H](C)[C@H]2[C@H](Cc3ccccc3)NC(=O)[C@]23OC(=O)/C=C/[C@H](O)CCC[C@@H](C)C/C=C/[C@H]3[C@@H]1O [CHEBI:23527] | 11.4 µM
